Results reported in patent publication US20250312365A1, “METHODS FOR INHIBITION OF SQUAMOUS CARCINOMA CELLS USING CERAMIDE MODULATORS” (The Trustees of Indiana University, priority 2024, published 2025).
“Also recorded” adds a separate entry of the source.

Key:
Assay type in all cases: cell-based, human
p-STAT3 = assay: Western blot of p-STAT3 in OECM1 cells; conditions: time course 15 minutes to 24 hours, compared to sham control
Procedure: To determine the effect of PGDHC on cell markers involved in metastasis, the protein levels of p-STAT3, EMT markers, E-cadherin, N-cadherin, and Vimentin in OECM1 cells following in vitro exposure to PGDHC were determined by Western blot assay.

ACER2 = ACER2 mRNA expression in OECM1 cells; conditions: 0.1 or 1 μg/ml of PGDHC
Text: Exemplary ceramidase genes, the expression of which can be measured to determine upregulation, include but are not limited to ASAH1, ACER2, and ACER3. A determination of ceramidase gene expression can be made according to methods available to one of skill in the art. For example, Yamada et al., J Cell Mol Med. 2023 May;27(9):1290-1295 and Kyriakou et al., Int. J. Mol. Sci. 2020, 21(5):1607 describes measuring the mRNA levels of ceramidases by RNA extraction and RT-PCR.
To test this hypothesis, it was first determined whether artificially elevated intracellular concentration of ceramide species affect the expression of acid/ASAH1, neutral/ASAH2, and alkaline1-3/ACER1-3 ceramidases in oral squamous cell carcinoma cells using C6-ceramide. Applicant previously reported that C6-ceramide serves as a positive control for PGDHC-mediated inflammation (Kanzaki et al., Biochim Biophys Acta Mol Cell Biol Lipids. 2017 May;1862(5):452-462) and promotes the intracellular accumulation of ceramide in cancer cells. See, e.g., Zhang et al., Front Plant Sci. 2020 Feb. 26:11:145, Zhai et al., Biochem Biophys Res Commun. 2015 December;468(1-2):274-80, Wilhelm et al., Cancers (Basel). 2021 Jan. 13;13(2):270, and Chapman et al., Biochem Pharmacol. 2010 Aug. 1;80(3):308-15.
Next, the effect of PGDHC on ceramidase gene expression was determined. OECM1 and SCC4 cells were exposed to 0.1 or 1 μg/ml of PGDHC. The mRNA levels of ceramidases were then measured following PGDHC exposure. PGDHC inhibited the expression of ASAH1 and ACER2 mRNAs in OECM1 (FIG. 8). […] See, e.g., Vijayan et al., J Adv Res. 2023 Dec. 21:S2090-1232(23)00403-4, Doan et al., Oncotarget. 2017 Nov. 7;8(68):112662-112674., Lai et al., Sci Rep. 2021 May 27;11(1):11221, Liu et al., Cancer Sci. 2020 July;111(7):2259-2274., and Liu et al., Front Genet. 2023 Mar. 1:14:1148437.
To elucidate the effects of C16:0 and dh-C16:0 on oral squamous cell carcinoma, the ability of exogenous C16:0 and dh-C16:0 to modulate proliferation and ceramidase expression in OECM1 cells was determined. […] In contrast, no effect of C16:0 on ASAH1 and ACER2 mRNA expressions.

OECM1 cells = assay: Untargeted metabolomic pathway analysis (LC/MS) in OECM1 cells; conditions: 1 μg/ml for 6 h
Text: Based on this analysis, at least 5 different cell survival metabolomic pathways, underlined in red were diminished in OSCC (OECM1 and SCC9), but not in healthy epithelial OBA9 cells in response to PGDHC. The 5 pathways were folate metabolism, arginine and proline metabolism, glycine and serine metabolism, de novo triacylglycerol biosynthesis, and mitrochondrial electron transport chain.
The plots in FIGS. 16A and 16B display the enriched pathways identified in the analysis, with their corresponding significance levels represented on the x-axis. The significance threshold (p<0.05) is denoted by the dashed line. […] Additionally, the color of the dots represents the enrichment, which indicates the extent to which the metabolites in the pathway were clustered amongst the compounds with the most positive fold-changes (positive enrichments), the most negative fold-changes (negative enrichments), or uniformly distributed across high and low fold-change compounds (enrichment values near 0.0). […] Polar and lipid metabolites were analyzed with hydrophilic interaction chromatography (HILIC/MS) and liquid chromatography (LC/MS), respectively. Mass spectrometry analysis was completed with a mass range of 67-1500 Da with 1 scan/sec and a mass resolution of 120,000 in both positive and negative ionization mode. The MS/MS mass-spectrometry data were acquired in a data-dependent iterative fashion with a 1.3 m/z isolation window. Based upon this metabolomic analysis, phosphoglycerol dihydroceramide (PGDHC) isolated from Porphyromonas gingivalis inhibits metabolomic pathways essential for cell survival in oral squamous cell carcinoma cells (OSCC).
The Warburg effect is a metabolic phenomenon observed in many cancer cells, where the cells preferentially use glycolysis metabolism to produce energy instead of oxidative phosphorylation. The Warburg effect is a hallmark of rapid cancer cell growth. Therefore, we evaluated whether PGDHC altered Warburg effect in OSCM1 and SCC9 oral squamous cell carcinoma cells (FIG. 17A), but not healthy epithelial OBA9 cells (FIG. 17B), in vitro. Cells were stimulated with PGDHC (1 μg/ml) for 6 h and the untargeted metabolomic analysis was performed using LC/MS mass-spectrometry. Polar and lipid metabolites were analyzed with HILIC/MS and LC/MS, respectively. Mass spectrometry analysis was completed with a mass range of 67-1500 Da with 1 scan/sec and a mass resolution of 120,000 in both positive and negative ionization mode. MS/MS data were acquired in a data-dependent iterative fashion with a 1.3 m/z isolation window.
Based upon the impact of PGDHC on the Warburg effect in OSCC cells, we further analyzed the levels of cancer-survival metabolites adenosine triphosphate (ATP) and glucose in the OECM1, SCC9, and OBA9 cells described in Example 11. As shown in FIG. 18A and FIG. 18B, PGDHC altered the levels of both ATP and glucose in OECM1 and SCC9 oral squamous cell carcinoma cells, but not OBA9. The metabolites levels are presented as the relative abundance based on the data presented in FIG. 16 and FIG. 17 heat maps.

Substance: phosphoglycerol dihydroceramide [PGDHC]
- levels of p-STAT3 protein in OECM1 cells (p-STAT3): no effect
- expression of ACER2 mRNA in OECM1 (ACER2): inhibited
- Warburg effect in OECM1 cells (OECM1 cells): altered
- arginine and proline metabolism in OECM1 cells (OECM1 cells): diminished accumulation; also recorded: inhibits
- de novo triacylglycerol biosynthesis in OECM1 cells (OECM1 cells): diminished accumulation; also recorded: inhibits
- folate metabolism in OECM1 cells (OECM1 cells): diminished accumulation; also recorded: inhibits
- glycine and serine metabolism in OECM1 cells (OECM1 cells): diminished accumulation; also recorded: inhibits
- level of ATP in OECM1 cells (relative abundance) (OECM1 cells): altered
- level of glucose in OECM1 cells (relative abundance) (OECM1 cells): altered
- mitochondrial electron transport in OECM1 cells (OECM1 cells): diminished accumulation; also recorded: inhibits
